In patent US20090215896A1, “REELIN DEFICIENCY OR DYSFUNCTION AND METHODS RELATED THERETO” (MARTEK BIOSCIENCES CORPORATION, priority 2004, published 2009):

Tested on: Reelin-deficient mice (B6C3Fe a/a-Reln<rl>/J)
Test: Reelin feeding study: number of offspring with reeler phenotype per diet group
Type: in vivo
Settings: DHA to pregnant and lactating dam and to pups after weaning, vs DHA Deficient Diet; P=0.04
Text: In the following experiment, the inventors tested whether LC-PUFA dietary enrichment (DHA) for mice lacking one or more normal reelin genes will correct Reelin histopathology/symptoms and will normalize the fatty acid profiles observed in Reelin-deficient mice. Specifically, the inventors evaluated whether dietary enrichment of long-chain polyunsaturated fatty acids (DHA) will correct or modulate Reelin histopathology/symptoms in Reelin-deficient mice.
Materials and Methods: The Reelin feeding study was sponsored by Martek Biosciences Corporation and initiated at Jackson Labs, Bar Harbor, Me. (Stock used: 300235 B6C3Fe a/a-Reln/J). Heterozygous females were mated with heterozygous males and received one of two experimental diets: a DHA DEFICIENT DIET (0% DHA by weight; 0.14% alpha linolenic acid by weight), or a DHA ADEQUATE DIET (0.462% DHA by weight, with 0.115% alpha linolenic acid by weight). The females continued to receive the specific diet throughout pregnancy and lactation. Homozygous, heterozygous, and wild-type pups born to pregnant females were placed on the same specific maternal diet at weaning. The number of reeler mice was recorded within each diet group. […] Pups were sacrificed at between 8 and 14 weeks of age and tissues were collected for fatty acid analysis.

CCC=CCC=CCC=CCC=CCC=CCC=CCCC(=O)O [DHA, 4,7,10,13,16,19-docosahexaenoic acid]
reduction of the incidence of male reeler animals: ~3 fold
